The values that follow are results of earlier work, collected in patent US7550155B2, “Aqueous pharmaceutical compositions of 2,6-diisopropylphenol (propofol) and their uses” (Transform Pharmaceuticals Inc., priority 2002, dated 2009).

The structures appear in SMILES notation.

For this data set the following is noted: 10% aqueous solution of P188.

`CC(C)c1cccc(C(C)C)c1O` [propofol, 2,6-diisopropylphenol]: the “Propofol held in aqueous P188 solution” value is listed as 0.8%.
